Reference: patent US4820834A, “Benzodiazepine analogs” (priority 1987, dated 1989)
Read-outs that look alike come from different tables or passages of the source.

What was measured:
CCK receptor (pancreas) = target: T1, CCK receptor (pancreas) (Rattus norvegicus, UniProt P30551); assay: CCK Receptor Binding (Pancreas): inhibition of ^125 I-CCK-33 binding; design: species or system Male Sprague-Dawley rats
T1 construct: The whole pancreas was dissected free of fat tissue and was homogenized; from tissue; host or cells: rat pancreas membranes (Sprague-Dawley)
T1 sequence (P30551 1-444): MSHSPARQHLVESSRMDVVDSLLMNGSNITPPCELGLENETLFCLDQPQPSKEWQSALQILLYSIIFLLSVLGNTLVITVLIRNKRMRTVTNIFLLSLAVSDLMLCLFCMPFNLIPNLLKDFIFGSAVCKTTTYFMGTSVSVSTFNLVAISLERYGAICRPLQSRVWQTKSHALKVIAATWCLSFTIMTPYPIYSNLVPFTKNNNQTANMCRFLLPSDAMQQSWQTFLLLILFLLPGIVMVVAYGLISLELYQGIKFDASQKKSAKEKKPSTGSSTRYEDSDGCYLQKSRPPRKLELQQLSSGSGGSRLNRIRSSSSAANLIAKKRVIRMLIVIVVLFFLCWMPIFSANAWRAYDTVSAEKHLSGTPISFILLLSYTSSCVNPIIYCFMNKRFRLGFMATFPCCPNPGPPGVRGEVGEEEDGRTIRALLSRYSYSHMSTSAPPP
In short: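 Bound ^125I-CCK-33 was counted in pellets after a 30 min, 37° C incubation followed by centrifugation. Membranes came from male Sprague-Dawley rat pancreas, assayed in Tris HCl pH 7.7 containing DTT, bacitracin, PMSF and o-phenanthroline. For Scatchard analysis, tracer was diluted with rising unlabelled CCK-33.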

[1] = target: T2, CCK receptor (brain, cerebral cortex) (Cavia porcellus, UniProt H0VZC5); assay: biochemical; type: binding, Male Hartley guinea pigs
T2 construct: Cerebral cortex was dissected and used as a receptor source; from tissue; host or cells: guinea pig cerebral cortex membranes (male Hartley)
T2 sequence (H0VZC5 1-426): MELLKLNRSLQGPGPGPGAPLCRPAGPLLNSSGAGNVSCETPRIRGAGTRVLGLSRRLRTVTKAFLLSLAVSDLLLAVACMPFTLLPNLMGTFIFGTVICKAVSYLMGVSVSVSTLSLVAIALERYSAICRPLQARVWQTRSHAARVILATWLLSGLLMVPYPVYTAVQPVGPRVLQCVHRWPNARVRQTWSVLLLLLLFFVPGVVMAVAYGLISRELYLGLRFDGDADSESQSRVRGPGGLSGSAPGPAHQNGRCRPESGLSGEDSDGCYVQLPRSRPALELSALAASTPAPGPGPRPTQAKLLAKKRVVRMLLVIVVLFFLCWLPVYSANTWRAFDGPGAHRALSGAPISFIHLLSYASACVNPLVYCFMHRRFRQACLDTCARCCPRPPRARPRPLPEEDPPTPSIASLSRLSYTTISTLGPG
In short: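 Binding of [radiolabeled] CCK-33 measured by gamma counting of centrifuged pellets after 2 h at 25°C. Membranes came from guinea pig brain cortex, suspended in 10 mM HEPES, 5 mM MgCl2, 1 mM EGTA, 0.25 mg/ml bacitracin, 0.4% BSA.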

[2] = target: T3, Gastrin receptor (gastric glands) (Cavia porcellus, UniProt H0VZC5); assay: Gastrin Receptor Binding in Guinea Pig Gastric Glands; design: species or system guinea pig (male Hartley)
T3 construct: The washed guinea pig gastric glands prepared as above were resuspended; from tissue; host or cells: guinea pig gastric mucosal glands (male Hartley)
T3 sequence (H0VZC5 1-426): T2 sequence (H0VZC5 1-426)

[3] = IC50 ^125 I-CCK Pancreas, rat pancreas membranes, ^125 I-CCK-33, 37° C., 30 minutes
[4] = guinea pig cerebral cortex, ^125 I-CCK-33, 25° C., 2 hours, read-out: IC50 ^125 I-CCK Brain
[5] = ^125 I-gastrin, 25° C., 30 minutes, read-out: IC50 ^125 I-Gastrin Gastric Glands
[6] = IC50 ^125 I-CCK Brain, guinea pig cerebral cortex, ^125 I-CCK-33, 25° C., 2 hours
[7] = IC50 ^125 I-Gastrin Gastric Glands, 25° C., 30 minutes
[8] = rat pancreas membranes, ^125 I-CCK-33, 37° C., 30 minutes; read-out: IC50 ^125 I-CCK Pancreas
[9] = read-out: IC50 ^125 I-CCK Pancreas; rat pancreas membranes, ^125 I-CCK-33, 37° C., 30 minutes
[10] = read-out: IC50 ^125 I-CCK Brain, guinea pig cerebral cortex, ^125 I-CCK-33, 25° C., 2 hours
[11] = read-out: IC50 ^125 I-Gastrin Gastric Glands, 25° C., 30 minutes

SMILES	IC50 (CCK receptor (pancreas); [3])	IC50 [2, 5]	IC50 [1, 6]	IC50 [2, 7]	further results
Cc1ccc(S(=O)(=O)NC2N=C(c3ccccc3F)c3ccccc3NC2=O)cc1 (racemic) [Example 112, 1,3-Dihydro-3-(RS)-(4-methylphenylsulfonyl)amino-5-(2-fluorophenyl)-2H-1,4-benzodiazepin-2-one]	24 µM	> 10 µM	–	–	IC50 [1, 4]: > 50 µM
CC1=C(C(=O)NC2N=C(c3ccccc3F)c3ccccc3NC2=O)Cc2ccccc21 (racemic) [Example 115, 1,3-Dihydro-3-(RS)-(3'-methylindenyl-2-carbonyl)amino-5-(2-fluorophenyl)-2H-1,4-benzodiazepin-2-one]	0.022 µM	> 10 µM	–	–	IC50 [1, 4]: 3.5 µM
O=C(NC1N=C(c2ccccc2F)c2ccccc2NC1=O)c1ccc2ccccc2n1 (racemic) [Example 116]	0.3 µM	> 10 µM	–	–	IC50 [1, 4]: 80 µM
O=C1Nc2ccccc2C(c2ccccc2F)=NC1NCc1cc2ccccc2[nH]1 (racemic) [Example 124, 1,3-Dihydro-5-(2-fluorophenyl)-3-(RS)-(2-indolylmethyl-amino)-2H-1,4-benzodiazepin-2-one]	0.25 µM	–	100 µM	> 10 µM	–
O=C(CNc1ccccc1)NC1N=C(c2ccccc2F)c2ccccc2NC1=O (racemic) [Example 125, 1,3-Dihydro-3-(RS)-(phenylaminomethylcarbonyl)amino-5-(2-fluorophenyl)-2H-1,4-benzodiazepin-2-one]	0.9 µM	–	100 µM	> 10 µM	–
N#Cc1ccc(C(=O)NC2N=C(c3ccccc3)c3ccccc3NC2=O)cc1 (racemic) [Example 149, 3-(RS)-(4'-Cyanobenzoylamino)1,3-dihydro-5-phenyl-2H-1,4-benzodiazepin-2-one]	0.73 µM	–	> 100 µM	22 µM	–
O=C(NC1N=C(c2ccccc2F)c2ccccc2NC1=O)OCc1ccccc1 (racemic) [Example 175, 1,3-Dihydro-5-(2-fluorophenyl)-3(RS)-benzyloxycarbonylamino-2H-1,4-benzodiazepin-2-one]	0.7 µM	8 µM	–	–	IC50 [1, 4]: 15 µM
O=C(NC1N=C(c2ccccc2F)c2ccccc2NC1=S)OCc1ccccc1 (racemic) [Example 176, 1,3-Dihydro-5-(2-fluorophenyl)-3-(RS)-benzyloxycarbonylamino-2H-1,4-benzodiazeoin-2-thione]	1 µM	–	10 µM	3.2 µM	–
O=C(OC1N=C(c2ccccc2F)c2ccccc2N(C(=O)c2ccc(Cl)cc2)C1=O)c1ccc(Cl)cc1 (racemic) [Example 178, 1-(4-Chlorophenyl)carbonyl-1,3-dihydro-5-(2-fluorophenyl)-3(RS)-(4-chlorophenyl)carbonyloxy-2H-1,4-benzodiazepin-2-one]	4.9 µM	> 100 µM	–	–	IC50 [1, 4]: > 100 µM
O=C(OC1N=C(c2ccccc2F)c2ccccc2NC1=O)c1ccc(Cl)cc1 (racemic) [Example 179, 1,3-Dihydro-5-(2-fluorophenyl)-3(RS)-(4-chlorobenzoyl)oxy-2H-1,4-benzodiazepin-2-one]	4.4 µM	–	3.6 µM	18 µM	–
O=C(NC1N=C(c2ccccc2F)c2ccccc2NC1=S)c1ccc(Cl)cc1 (racemic) [Example 180, 1,3-Dihydro-5-(2-fluorophenyl)-3-(RS)-(4-chlorophenyl)carbonylamino-2H-1,4-benzodiazepin-2-thione]	0.016 µM	–	> 100 µM	11 µM	–
O=C(NC1N=C(c2ccccc2F)c2ccccc2NC1=S)c1cc2ccccc2[nH]1 (racemic) [Example 181, 1,3-Dihydro-5-(2-fluorophenyl)-3-(RS)-(2-indole) carbonylamino-2H-1,4-benzodiazepin-2-thione]	0.002 µM	–	9.3 µM	4.4 µM	–
CC(C)(C)OC(=O)N[C@H](Cc1c[nH]c2ccccc12)C(=O)Nc1ccccc1C(=O)c1ccccc1F [Example 1, 2-N-(Nα-Boc-D-tryptophanyl)amino-2'-fluorobenzophenone]	–	167 µM	–	–	IC50 (CCK receptor (pancreas); [8]): 67 µM; IC50 ([1]; read-out: IC50 ^125 I-CCK Brain): > 100 µM
CSC1=N[C@@H](Cc2cn(C)c3ccccc23)C(=O)N(C)c2ccccc21 [Example 7, 1,3-Dihydro-3(S)-[3'-(1'-methylindolyl)methyl]-1-methyl-5-methylthio-2H-1,4-benzodiazepin-2-one]	–	> 100 µM	–	–	IC50 (CCK receptor (pancreas); [8]): > 100 µM; IC50 [1, 4]: 100 µM
CSC1=N[C@@H](Cc2c[nH]c3ccccc23)C(=O)N(C)c2ccccc21 [Example 8, 1,3-Dihydro-3(S)-(3'-indolyl)methyl-1-methyl-5-methylthio-2H-1,4-benzodiazepin-2-one]	–	227 µM	–	–	IC50 (CCK receptor (pancreas); [8]): 100 µM; IC50 [1, 4]: 100 µM
O=C1Nc2ccccc2C(c2ccccc2F)=N[C@@H]1CC1CNc2ccccc21 (stereo partly drawn) [Example 9]	10.7 µM	78 µM	48 µM	–	–
O=C1Nc2ccccc2C(c2ccccc2F)=N[C@@H]1CC1CNc2ccccc21 (stereo partly drawn) [Example 10]	–	47 µM	–	–	IC50 (CCK receptor (pancreas); [9]): 16.7 µM; IC50 [1, 10]: > 100 µM
CC(C)C[C@H]1N=C(c2ccccc2)c2cc(Cl)ccc2NC1=O [Example 14, 7-Chloro-1,3-dihydro-3(R)-(2-methyl-1-propyl)-5-phenyl-2H-1,4-benzodiazepin-2-one]	42 µM	–	60 µM	12 µM	–
O=C1Nc2ccc(Cl)cc2C(c2ccccc2)=N[C@@H]1COCc1ccccc1 [Example 15, 3(R)-Benzyloxymethyl-7-chloro-1,3-dihydro-5-phenyl-2H-1,4-benzodiazepin-2-one]	60 µM	–	80 µM	38 µM	–
O=C(NN=C1Nc2ccccc2C(c2ccccc2F)=N[C@@H]1Cc1c[nH]c2ccccc12)c1ccsc1 [Example 35, 1,3-Dihydro-5-(2-fluorophenyl)-3(R)-(3'-indolyl)methyl-2H-1,4-benzodiazepin-2-[N'-(3-thienoyl)]hydrazide]	10 µM	–	15 µM	> 100 µM	–
CCN1C(=O)[C@@H](Cc2c[nH]c3ccccc23)N=C(c2ccccc2F)c2ccccc21 [Example 36, 1,3-Dihydro-1-ethyl-5-(2-fluorophenyl)-3(R)-(3'-indolyl)methyl-2H-1,4-benzodiazepin-2-one]	0.3 µM	–	30 µM	> 100 µM	–
CC(C)CCN1C(=O)[C@@H](Cc2c[nH]c3ccccc23)N=C(c2ccccc2F)c2ccccc21 [Example 39, 1,3-Dihydro-5-(2-fluorophenyl)-3(R)-(3'-indolyl) methyl-1-(3-methylbutyl)-2H-1,4-benzodiazepine-2-one]	100 µM	–	30 µM	23 µM	–
O=C(O)CN1C(=O)[C@@H](Cc2c[nH]c3ccccc23)N=C(c2ccccc2F)c2ccccc21 [Example 43]	–	–	–	–	IC50 (CCK receptor (pancreas); [9]): 0.3 µM; IC50 [1, 10]: 23 µM; IC50 [2, 11]: 5 µM
CN1C(=O)[C@@H](Cc2cn(C(=O)c3ccc(Cl)cc3)c3ccccc23)N=C(c2ccccc2F)c2ccccc21 [Example 45, 1,3-Dihydro-5-(2-fluorophenyl)-3(R)-[3'-(1'-p-chlorobenzyloylindolyl)methyl]-1-methyl-2H-1,4-benzodiazepin-2-one]	–	–	–	–	IC50 (CCK receptor (pancreas); [9]): 10.6 µM; IC50 [1, 10]: > 100 µM; IC50 [2, 11]: > 1000 µM
